Results taken from ChEMBL document CHEMBL1140835, “Design, synthesis, and in vitro antitumor activity of new 1,4-diarylimidazole-2-ones and their 2-thione analogues” (2008).

How the values were obtained:
Assay type in all cases: functional
Hs-578T = assay: Antiproliferative activity against human HS578T cells
SK-MEL-5 = assay: Antiproliferative activity against human SK-MEL-5 cells
PC-3 = assay: Antiproliferative activity against human PC3 cells
RPMI-8226 = assay: Antiproliferative activity against human RPMI8226 cells
UACC-62 = assay: Antiproliferative activity against human UACC62 cells
[1] = Antiproliferative activity against human […] cells
HOP-92 = assay: Antiproliferative activity against human HOP92 cells; conditions: for TGI: read-out: pTGI (converted)
HCT-15 = assay: Antiproliferative activity against human HCT15 cells
EKVX = assay: Antiproliferative activity against human EKVX cells
SR = assay: Antiproliferative activity against human SR cells; conditions: for TGI: read-out: pTGI (converted)
HL-60 = assay: Antiproliferative activity against human HL60 cells
SNB-75 = assay: Antiproliferative activity against human SNB75 cells
LOX IMVI = assay: Antiproliferative activity against human LOX IMVI cells; conditions: for TGI: read-out: pTGI (converted)
SF-539 = assay: Antiproliferative activity against human SF539 cells
SF-295 = assay: Antiproliferative activity against human SF295 cells
CAKI-1 = assay: Antiproliferative activity against human CAKI-1 cells
HCT-116 = assay: Antiproliferative activity against human HCT116 cells
MOLT-4 = assay: Antiproliferative activity against human MOLT4 cells
786-0 = assay: Antiproliferative activity against human 786-0 cells
DU-145 = assay: Antiproliferative activity against human DU145 cells
CCRF-CEM = assay: Antiproliferative activity against human CCRF-CEM cells
UO-31 = assay: Antiproliferative activity against human UO31 cells
RXF 393 = assay: Antiproliferative activity against human RXF393 cells

SMILES | GI50 (SK-MEL-5) [µM] | GI50 (PC-3) [µM] | GI50 (RPMI-8226) [µM] | GI50 (HCT-15) [µM] | GI50 (HL-60) [µM] | GI50 (HCT-116) [µM] | GI50 (MOLT-4) [µM] | GI50 (786-0) [µM] | GI50 (DU-145) [µM] | GI50 (Hs-578T) [µM] | GI50 (UACC-62) [µM] | GI50 [1] [µM] | GI50 (HOP-92) [µM] | GI50 (EKVX) [µM] | GI50 (SNB-75) [µM] | GI50 (LOX IMVI) [µM] | GI50 (SF-539) [µM] | GI50 (SF-295) [µM] | GI50 (CAKI-1) [µM] | GI50 (UO-31) [µM] | other results
COc1ccc(-n2cc(-c3ccc(OC)c(OC)c3)[nH]c2=S)cc1Cl | > 100 | > 100 | > 100 | > 100 | > 100 | > 100 | 79.4 | 50.1 | > 100 | 39.8 | > 100 | > 100 | 39.8 | 39.8 | 5.01 | > 100 | 39.8 | 39.8 | > 100 | > 100 | GI50 (SR): > 100 µM; GI50 (CCRF-CEM): > 100 µM
COc1ccc(-c2cn(-c3ccc(OC)c(OC)c3)c(=O)[nH]2)cc1 | 63.1 | > 100 | > 100 | > 100 | 39.8 | > 100 | 1.58 | > 100 | > 100 | > 100 | > 100 | 50.1 | > 100 | > 100 | 25.1 | > 100 | > 100 | > 100 | > 100 | > 100 | GI50 (SR): 0.1 µM; TGI (SR): 0.631 µM; GI50 (CCRF-CEM): > 100 µM
COc1ccc(-n2cc(-c3cc(OC)c(OC)c(OC)c3)[nH]c2=S)cc1OC | > 100 | > 100 | > 100 | > 100 | > 100 | > 100 | 6.31 | > 100 | > 100 | > 100 | > 100 | > 100 | > 100 | > 100 | 63.1 | > 100 | > 100 | > 100 | > 100 | > 100 | GI50 (SR): 2.51 µM; TGI (SR): 7.94 µM; GI50 (RXF 393): > 100 µM; GI50 (CCRF-CEM): > 100 µM
COc1ccc(-c2cn(-c3ccc(Cl)cc3)c(=S)[nH]2)cc1OC | 3.16 | 63.1 | 3.98 | 5.01 | 3.16 | 3.98 | > 100 | 6.31 | 12.6 | 20 |  | 6.31 | 0.316 | 12.6 | 15.8 | 1.58 | 31.6 | 6.31 | 3.16 | 39.8 | TGI (HOP-92): 7.94 µM; GI50 (SR): 3.16 µM; GI50 (RXF 393): 3.16 µM; LC50 (LOX IMVI): 6.31 µM; TGI (LOX IMVI): 3.16 µM; GI50 (CCRF-CEM): > 100 µM
COc1cc(-c2cn(-c3ccc(Cl)cc3)c(=O)[nH]2)cc(OC)c1OC | > 100 | > 100 | > 100 | > 100 | 0.398 | > 100 | 0.0199 | > 100 | > 100 | > 100 | > 100 | > 100 | > 100 | > 100 | > 100 |  | > 100 | > 100 | > 100 | > 100 | GI50 (SR): 0.0316 µM; TGI (SR): 39.8 µM; GI50 (RXF 393): > 100 µM; GI50 (CCRF-CEM): > 100 µM
COc1ccc(-n2cc(-c3cc(OC)c(OC)c(OC)c3)[nH]c2=O)cc1Cl | > 100 | > 100 | > 100 | > 100 | > 100 | > 100 | > 100 | 25.1 |  | 31.6 | 50.1 | > 100 | 15.8 | > 100 | 6.31 | > 100 | 31.6 | 39.8 | > 100 | > 100 | GI50 (SR): 50.1 µM; GI50 (CCRF-CEM): > 100 µM
O=c1[nH]c(-c2ccc(Cl)c(Cl)c2)cn1-c1ccc(Cl)cc1 | 39.8 | 63.1 | 63.1 | > 100 | 31.6 | 15.8 | 20 | 20 | 31.6 | 15.8 | 25.1 | 25.1 | 15.8 | 31.6 | 20 | 39.8 | 20 | 25.1 | 25.1 | 25.1 | GI50 (SR): 5.01 µM; TGI (SR): 15.8 µM; GI50 (RXF 393): 31.6 µM; GI50 (CCRF-CEM): 39.8 µM

More lines, in order of falling GI50 (SK-MEL-5), values ahead:

GI50 (SK-MEL-5) [µM] | GI50 (PC-3) [µM] | GI50 (RPMI-8226) [µM] | GI50 (HCT-15) [µM] | GI50 (HL-60) [µM] | GI50 (HCT-116) [µM] | GI50 (MOLT-4) [µM] | GI50 (786-0) [µM] | GI50 (DU-145) [µM] | SMILES | GI50 (Hs-578T) [µM] | GI50 (UACC-62) [µM] | GI50 [1] [µM] | GI50 (HOP-92) [µM] | GI50 (EKVX) [µM] | GI50 (SNB-75) [µM] | GI50 (LOX IMVI) [µM] | GI50 (SF-539) [µM] | GI50 (SF-295) [µM] | GI50 (CAKI-1) [µM] | GI50 (UO-31) [µM] | other results
39.8 | 31.6 | 50.1 | > 100 | > 100 | 50.1 | 39.8 | 20 | 39.8 | COc1ccc(-n2cc(-c3ccc(Cl)cc3)[nH]c2=S)cc1Cl | 25.1 | 79.4 | 20 | 15.8 | 39.8 | 20 | 100 | 20 | 25.1 | 25.1 | 20 | GI50 (RXF 393): 25.1 µM; GI50 (CCRF-CEM): 63.1 µM
39.8 | 39.8 | > 100 | 79.4 | 63.1 | 63.1 | > 100 | 25.1 | 1.58 | COc1cc(-n2cc(-c3ccccc3)[nH]c2=O)cc(OC)c1OC | 31.6 | 39.8 | 31.6 | 20 | 25.1 | 12.6 | > 100 | 20 | 39.8 | 39.8 | 39.8 | GI50 (SR): > 100 µM
31.6 | 15.8 | 12.6 | > 100 | > 100 | 31.6 | > 100 | 15.8 | 63.1 | COc1cc(-n2cc(-c3ccc(Cl)cc3)[nH]c2=O)cc(OC)c1OC | 79.4 | 25.1 |  |  | 31.6 | 25.1 | 63.1 | 25.1 | 31.6 | 15.8 | 20 | GI50 (SR): > 100 µM; GI50 (CCRF-CEM): < 0.01 µM
25.1 | 50.1 | 5.01 | > 100 | > 100 | 25.1 | > 100 | 25.1 | 31.6 | COc1ccc(-n2cc(-c3cc(OC)c(OC)c(OC)c3)[nH]c2=S)cc1Cl | 15.8 | > 100 | 31.6 | 31.6 | 39.8 | 20 | 6.31 | 20 | 39.8 | 5.01 | 39.8 | GI50 (RXF 393): 15.8 µM; GI50 (CCRF-CEM): 0.631 µM
0.01 | 0.0316 | 0.158 | 0.0316 |  | 0.0316 | 0.1 | 0.0199 | 0.01 | COc1ccc(/C=C\c2cc(OC)c(OC)c(OC)c2)cc1O [COMBRETASTATIN A4] | 0.158 | 0.01 | 50.1 | 0.2 | 0.398 | 0.794 | 0.01 | 0.0398 | 0.0631 | 0.0398 | 0.2 | TGI (HOP-92): 39.8 µM; GI50 (SR): 0.126 µM; TGI (SR): 79.4 µM; GI50 (RXF 393): 0.794 µM; TGI (LOX IMVI): 12.6 µM; GI50 (CCRF-CEM): 0.1 µM
